Assay results reported in PMC12951562, “SH2scan: Mapping SH2 Domain-Ligand Binding Selectivity for Inhibitors and Degraders” (Journal of Medicinal Chemistry, 2026).
Read-outs that look alike come from different tables or passages of the source. Non-standard residues stand in square brackets, D forms with d. Residues, ends and D or L forms follow the SMILES beside them. *: point of attachment. pY = N[C@@H](Cc1ccc(OP(=O)(O)O)cc1)C(=O)O; Caffeoyl = O=C(/C=C/c1ccc(O)c(O)c1)*

Key:
FYN = target: T1, FYN (Homo sapiens, UniProt P06241); experiment: biochemical; type: binding; details: for percent of DMSO vehicle control at 10 µM / remaining activity at 10 µM: read-out: percent of DMSO vehicle control
T1 construct: the DNA-tagged SH2 domain concentrations used in this study were <0.1 nM; made in house; host or cells: HEK293 (transient transfection; unpurified extract)

SH2D1A = target: T2, SH2D1A (Homo sapiens, UniProt O60880); experiment: biochemical; type: binding; details: for remaining activity at 10 µM: read-out: percent of DMSO vehicle control
T2 construct: made in house; host or cells: HEK293 (transient transfection), unpurified extract
T2 sequence (O60880 1-128): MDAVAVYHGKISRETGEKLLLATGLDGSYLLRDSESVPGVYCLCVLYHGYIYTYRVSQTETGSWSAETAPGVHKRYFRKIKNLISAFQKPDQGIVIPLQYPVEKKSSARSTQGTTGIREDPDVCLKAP

SHIP2 = target: T3, SHIP2 (Homo sapiens, UniProt O15357); experiment: biochemical; type: binding; details: for remaining activity at 10 µM: read-out: percent of DMSO vehicle control
T3 construct: made in house; host or cells: HEK293 (transient transfection), unpurified extract
T3 sequence (O15357 1-1258): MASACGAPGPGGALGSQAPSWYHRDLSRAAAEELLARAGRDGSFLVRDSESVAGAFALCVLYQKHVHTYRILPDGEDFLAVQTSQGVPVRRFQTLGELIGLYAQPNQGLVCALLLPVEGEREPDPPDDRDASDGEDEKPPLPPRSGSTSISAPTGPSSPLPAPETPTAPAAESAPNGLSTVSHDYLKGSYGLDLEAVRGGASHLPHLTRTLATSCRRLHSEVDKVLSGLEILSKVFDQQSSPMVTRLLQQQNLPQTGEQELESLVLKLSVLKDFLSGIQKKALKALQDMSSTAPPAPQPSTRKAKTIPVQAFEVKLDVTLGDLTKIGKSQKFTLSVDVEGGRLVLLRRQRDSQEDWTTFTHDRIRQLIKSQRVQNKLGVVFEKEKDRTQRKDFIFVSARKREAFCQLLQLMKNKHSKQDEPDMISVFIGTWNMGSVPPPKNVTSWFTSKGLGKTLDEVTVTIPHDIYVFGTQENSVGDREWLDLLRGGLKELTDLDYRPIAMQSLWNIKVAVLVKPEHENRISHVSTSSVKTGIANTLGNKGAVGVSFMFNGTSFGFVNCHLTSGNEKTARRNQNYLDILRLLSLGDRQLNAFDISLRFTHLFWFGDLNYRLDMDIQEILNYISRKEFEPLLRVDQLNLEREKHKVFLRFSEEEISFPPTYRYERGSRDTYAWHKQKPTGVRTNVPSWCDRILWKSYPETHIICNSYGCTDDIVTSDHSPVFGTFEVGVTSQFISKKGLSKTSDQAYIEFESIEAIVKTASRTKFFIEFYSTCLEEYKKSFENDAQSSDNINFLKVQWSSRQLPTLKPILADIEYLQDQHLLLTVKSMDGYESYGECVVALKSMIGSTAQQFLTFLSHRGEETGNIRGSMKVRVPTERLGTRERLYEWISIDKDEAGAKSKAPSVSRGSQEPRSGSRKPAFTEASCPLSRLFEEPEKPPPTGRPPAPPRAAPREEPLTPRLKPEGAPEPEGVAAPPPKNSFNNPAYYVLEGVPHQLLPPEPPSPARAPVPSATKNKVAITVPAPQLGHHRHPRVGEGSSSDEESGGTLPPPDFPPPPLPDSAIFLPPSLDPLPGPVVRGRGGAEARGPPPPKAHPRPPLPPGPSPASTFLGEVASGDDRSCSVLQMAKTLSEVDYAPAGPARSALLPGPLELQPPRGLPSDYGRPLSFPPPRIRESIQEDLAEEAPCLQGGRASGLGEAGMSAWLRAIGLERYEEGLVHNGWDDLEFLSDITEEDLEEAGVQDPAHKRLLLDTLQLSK

[1] = target: T4, STAT3(Y640F)-nonphosphorylated (Homo sapiens, UniProt P40763, Y640F); experiment: biochemical; type: binding; details: for percent of DMSO vehicle control at 10 µM / remaining activity at 10 µM: read-out: percent of DMSO vehicle control
T4 construct: made in house; host or cells: HEK293 (transient transfection), unpurified extract, dephosphorylated by endogenous phosphatases

STAT5B(N642H) = target: T5, STAT5B(N642H) (Homo sapiens, UniProt P51692, N642H); experiment: biochemical; type: binding; details: for percent of DMSO vehicle control at 10 µM / remaining activity at 10 µM: read-out: percent of DMSO vehicle control
T5 construct: made in house; host or cells: HEK293 (transient transfection), unpurified extract
T5 sequence (P51692 1-787 N642H): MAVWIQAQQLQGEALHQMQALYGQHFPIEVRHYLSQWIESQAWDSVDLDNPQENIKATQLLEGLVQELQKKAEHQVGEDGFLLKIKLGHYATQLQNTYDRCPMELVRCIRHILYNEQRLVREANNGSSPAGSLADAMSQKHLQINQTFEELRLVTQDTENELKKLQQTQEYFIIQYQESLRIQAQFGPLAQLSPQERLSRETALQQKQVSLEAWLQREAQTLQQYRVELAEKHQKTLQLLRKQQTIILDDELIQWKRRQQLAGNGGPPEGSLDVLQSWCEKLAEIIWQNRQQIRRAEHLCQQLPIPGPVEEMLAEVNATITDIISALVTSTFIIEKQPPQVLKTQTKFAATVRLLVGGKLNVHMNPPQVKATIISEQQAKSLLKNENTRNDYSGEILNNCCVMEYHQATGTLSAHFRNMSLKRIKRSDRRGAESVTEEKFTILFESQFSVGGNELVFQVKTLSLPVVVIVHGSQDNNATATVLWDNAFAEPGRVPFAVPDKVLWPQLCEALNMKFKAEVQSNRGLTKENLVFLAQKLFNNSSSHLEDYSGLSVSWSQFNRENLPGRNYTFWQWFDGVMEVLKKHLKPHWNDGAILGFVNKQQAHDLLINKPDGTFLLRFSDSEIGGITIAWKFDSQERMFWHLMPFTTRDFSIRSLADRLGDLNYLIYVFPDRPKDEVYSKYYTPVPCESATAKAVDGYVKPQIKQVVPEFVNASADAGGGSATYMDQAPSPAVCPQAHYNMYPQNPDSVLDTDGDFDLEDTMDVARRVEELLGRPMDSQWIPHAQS

SYK(SH2dom1.dom2.) = target: T6, SYK(SH2dom1.dom2.) (Homo sapiens, UniProt P43405); type: binding; details: primary screen, 10 μM
T6 construct: the SH2 domains for these targets are expressed in tandem constructs; made in house; host or cells: HEK293 (transient transfection), unpurified extract

ZAP70(SH2dom1.dom2.) = target: T7, ZAP70(SH2dom1.dom2.) (Homo sapiens, UniProt P43403); experiment: biochemical; details: for remaining activity at 10 µM: read-out: percent of DMSO vehicle control
T7 sequence (P43403 1-254 limits assumed): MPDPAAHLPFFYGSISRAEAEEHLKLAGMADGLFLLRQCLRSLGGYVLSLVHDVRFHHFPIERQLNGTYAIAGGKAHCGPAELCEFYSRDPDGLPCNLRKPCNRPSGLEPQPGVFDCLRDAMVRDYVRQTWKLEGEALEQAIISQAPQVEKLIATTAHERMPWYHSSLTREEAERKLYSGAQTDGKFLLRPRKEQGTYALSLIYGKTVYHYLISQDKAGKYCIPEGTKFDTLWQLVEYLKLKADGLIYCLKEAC

| Structure (SMILES) | percent of DMSO vehicle control at 10 µM (FYN) [%] | remaining activity at 10 µM (SH2D1A) [%] | remaining activity at 10 µM (SHIP2) [%] | percent of DMSO vehicle control at 10 µM [1] [%] | percent of DMSO vehicle control at 10 µM (STAT5B(N642H)) [%] | percent of DMSO vehicle control (SYK(SH2dom1.dom2.)) [%] | remaining activity at 10 µM (ZAP70(SH2dom1.dom2.)) [%] | remaining activity at 10 µM (FYN; primary screen, 10 μM) [%] | remaining activity at 10 µM (SH2D1A; primary screen, 10 μM) [%] | remaining activity at 10 µM (SHIP2; primary screen, 10 μM) [%] | remaining activity at 10 µM ([1]; primary screen, 10 μM) [%] | remaining activity at 10 µM (STAT5B(N642H); primary screen, 10 μM) [%] | other results |
| --- | --- | --- | --- | --- | --- | --- | --- | --- | --- | --- | --- | --- | --- |
| NC(=O)CC[C@H](NC(=O)[C@@H]1CC[C@@H]2CCN(C(=O)CCCCCC#Cc3cccc4c3CN(C3CCC(=O)NC3=O)C4=O)C[C@H](NC(=O)c3cc4cc(C(F)(F)P(=O)(O)O)ccc4[nH]3)C(=O)N21)C(=O)NC(c1ccccc1)c1ccccc1 (some centres unmarked) [SD-36] | 106 | 354 | 67.3 ± 2.6 | 0.2 ± 0.6 | 3.2 ± 0.8 | 104.6 | 95.6 ± 1.3 | – | – | – | – | – | Kd ([1]; dose-response): 80 ± 27 nM; Kd (STAT5B(N642H); dose-response): 2400 ± 740 nM |
| CC(C)(C)[C@H](NC(=O)/C=C/c1ccc(OP(=O)(O)O)cc1)C(=O)N1CCC[C@H]1C(=O)N(c1ccccc1)c1ccc(I)cc1 [STAT6-IN-3] | – | – | – | – | – | 65.2±43.9 | 60.7 ± 32.9 | 51.8 ± 33.2 | 68.5 ± 43.7 | 36.5 ± 29.6 | 2.4 ± 6.1 | 1.3 ± 7.7 | KD (SHIP2; dose-response): No Hit; Kd ([1]; dose-response, read-out: KD): 95 ± 40 nM; Kd (STAT5B(N642H); dose-response, read-out: KD): 36 ± 27 nM |
| CC[C@H](C)[C@H](NC(=O)[C@H](CCC(=O)O)NC(=O)[C@H](CCC(=O)O)NC(=O)[C@H](Cc1ccc(OP(=O)(O)O)cc1)NC(C)=O)C(=O)N[C@@H](CCC(=O)O)C(N)=O [Ac-pYEEIE-NH2] (Ac-[pY]EEIE-NH2) | – | – | – | – | – | 126.1 | – | – | – | – | – | – | Kd (FYN): 3300 nM; percent of DMSO vehicle control (FYN; primary screen, 10 μM): 21.2±2.5%; percent of DMSO vehicle control (SH2D1A; primary screen, 10 μM): 93.4%; percent of DMSO vehicle control (SHIP2; primary screen, 10 μM): 62.5±0.8%; percent of DMSO vehicle control ([1]; primary screen, 10 μM): 156.0%; percent of DMSO vehicle control (STAT5B(N642H); primary screen, 10 μM): 115.5% |
| O=C(CCl)Nc1cccc(CNC(=O)[C@H](Cc2ccc(OP(=O)(O)O)cc2)NC(=O)Cc2ccc(F)cc2)c1 [MN551] | – | – | – | – | – | 61.9±4.0 | 33.5 | 83.2 ± 0.4 | 77.9 ± 2.2 | 31.7 | 49 ± 5.7 | 76.9 | KD (SHIP2; dose-response): No Hit |
| CC(=O)N[C@@H](Cc1ccc(CP(=O)(O)O)cc1)C(=O)NC1(C(=O)N[C@@H](CC(N)=O)C(=O)NCCCc2c(O)ccc3ccccc23)CCCCC1 [CGP78850] | 53.7 ± 4.6 | 63.8 ± 17.1 | 106 ± 9.3 | 118 ± 3.3 | 107 ± 9.8 | 85.1±0.1 | 91.6 ± 5.3 | – | – | – | – | – | – |
| CC(=O)N1CC[C@H]2CC[C@@H](C(=O)N[C@@H](CCC(N)=O)C(=O)NC(c3ccccc3)c3ccccc3)N2C(=O)[C@@H](NC(=O)c2cc3cc(C(F)(F)P(=O)(O)O)ccc3[nH]2)C1 [SI-109] | 97.3 | 87.6 | 121 | 5.8 ± 3.7 | 123 | 121.8 | 129 | – | – | – | – | – | Kd [1]: 78 ± 44 nM; Kd (STAT5B(N642H)): 19000 ± 8500 nM |
| CC[C@H](C)[C@H](NC(=O)[C@H](CCC(=O)O)NC(=O)[C@H](CCC(=O)O)NC(=O)[C@H](Cc1ccc(OP(=O)(O)O)cc1)NC(=O)/C=C/c1ccc(O)c(O)c1)C(=O)N[C@@H](CCC(=O)O)C(=O)O [Caffeic acid-pYEEIE] (Caffeoyl-[pY]EEIE-OH) | 0 | 79.8 ± 21.3 | 0.2 | 131 ± 28.4 | 9.4 ± 1 | 72.6±6.4 | 32.3 ± 1.6 | – | – | – | – | – | Kd (FYN): 0.53 nM; Kd (SHIP2): 230 ± 120 nM; Kd (STAT5B(N642H)): 2400 ± 2300 nM; Kd (ZAP70(SH2dom1.dom2.)): 6900 ± 3.8 nM |
| O=C(COc1ccc2cc(C(=O)Nc3ccccc3)ccc2c1)NCc1ccc(OP(=O)(O)O)c(OP(=O)(O)O)c1 [Stafib-1] | – | – | – | – | – | 66.1±28.1 | 58 ± 19.5 | 92.1 ± 35.5 | 87.8 ± 37.4 | – | 75.3 ± 26 | 12.5 ± 13.5 | – |
| C/C(=C\C(=O)N[C@H](C(=O)N1CCC[C@H]1C(=O)N(c1ccccc1)c1ccc(I)cc1)C(C)(C)C)c1ccc(OP(=O)(O)O)cc1 [STAT6-IN-1] | – | – | – | – | – | 61.2±11.0 | 51.4 | 48.2 ± 2.1 | 68.7 ± 3.5 | 6.9 ± 3.9 | 0 | 0 | Kd (SHIP2; dose-response, read-out: KD): 2030 ± 420 nM; Kd ([1]; dose-response, read-out: KD): 102 ± 44 nM; Kd (STAT5B(N642H); dose-response, read-out: KD): 5.6 ± 2.1 nM |
